# In ChEMBL document CHEMBL1129930, “Analogues of methotrexate in rheumatoid arthritis. 2. Effects of 5-deazaaminopterin, 5,10-dideazaaminopterin, and analogues on type II collagen-induced arthritis in mice” (J Med Chem, 1997):
# Columns and labels:
# Mus musculus [1] = assay: Incidence of disease (mouse type II collagen) was scored as the percentage of animals within each experimental group that exhibited joint or limb inflammation on day 44 at intraperitoneal dose of 6 mg/kg; type: functional
# Mus musculus [2] = assay: Incidence of disease (mouse type II collagen) was scored as the percentage of animals within each experimental group that exhibited joint or limb inflammation on day 30 at intraperitoneal dose of 0.75 mg/kg; type: functional
# Mus musculus [3] = assay: Tested for antiinflammatory activity on mouse type II collagen arthritis as Paw swelling of all animals in each group on day 37 at intraperitoneal dose of 3 mg/kg; type: functional
# Mus musculus [4] = assay: Tested for antiinflammatory activity on mouse type II collagen arthritis as Paw swelling of all animals in each group on day 44 at intraperitoneal dose of 0.38 mg/kg; type: functional
# Mus musculus [5] = assay: Incidence of disease (mouse type II collagen) was scored as the percentage of animals within each experimental group that exhibited joint or limb inflammation on day 44 at intraperitoneal dose of 3 mg/kg; type: functional
# Mus musculus [6] = assay: Incidence of disease (mouse type II collagen) was scored as the percentage of animals within each experimental group that exhibited joint or limb inflammation on day 44 at intraperitoneal dose of 0.75 mg/kg; type: functional
# Mus musculus [7] = assay: Incidence of disease (mouse type II collagen) was scored as the percentage of animals within each experimental group that exhibited joint or limb inflammation on day 30 at intraperitoneal dose of 0.38 mg/kg; type: functional
# Mus musculus [8] = assay: Incidence of disease (mouse type II collagen) was scored as the percentage of animals within each experimental group that exhibited joint or limb inflammation on day 23 at intraperitoneal dose of 1.5 mg/kg; type: functional
# [9] = Concentration required to inhibit the growth of chang liver cells.; type: functional; details: Homo sapiens
# Mus musculus [10] = assay: Tested for antiinflammatory activity on mouse type II collagen arthritis as Paw swelling of all animals in each group on day 37 at intraperitoneal dose of 0.75 mg/kg; type: functional
# Mus musculus [11] = assay: Tested for antiinflammatory activity on mouse type II collagen arthritis as Paw swelling of all animals in each group on day 44 at intraperitoneal dose of 0.75 mg/kg; type: functional
# Mus musculus [12] = assay: Incidence of disease (mouse type II collagen) was scored as the percentage of animals within each experimental group that exhibited joint or limb inflammation on day 44 at intraperitoneal dose of 0.38 mg/kg; type: functional
# Mus musculus [13] = assay: Tested for antiinflammatory activity on mouse type II collagen arthritis as Paw swelling of all animals in each group on day 30 at intraperitoneal dose of 1.5 mg/kg; type: functional
# Mus musculus [14] = assay: Tested for antiinflammatory activity on mouse type II collagen arthritis as Paw swelling of all animals in each group on day 23 at intraperitoneal dose of 0.38 mg/kg; type: functional
# Mus musculus [15] = assay: Tested for antiinflammatory activity on mouse type II collagen arthritis as Paw swelling of all animals in each group on day 23 at intraperitoneal dose of 6 mg/kg; type: functional
# Mus musculus [16] = assay: Incidence of disease (mouse type II collagen) was scored as the percentage of animals within each experimental group that exhibited joint or limb inflammation on day 37 at intraperitoneal dose of 0.38 mg/kg; type: functional
# Mus musculus [17] = assay: Incidence of disease (mouse type II collagen) was scored as the percentage of animals within each experimental group that exhibited joint or limb inflammation on day 23 at intraperitoneal dose of 6 mg/kg; type: functional
# Mus musculus [18] = assay: Incidence of disease (mouse type II collagen) was scored as the percentage of animals within each experimental group that exhibited joint or limb inflammation on day 30 at intraperitoneal dose of 3 mg/kg; type: functional
# Mus musculus [19] = assay: Tested for antiinflammatory activity on mouse type II collagen arthritis as Paw swelling of all animals in each group on day 37 at intraperitoneal dose of 1.5 mg/kg; type: functional
# Mus musculus [20] = assay: Incidence of disease (mouse type II collagen) was scored as the percentage of animals within each experimental group that exhibited joint or limb inflammation on day 37 at intraperitoneal dose of 0.75 mg/kg; type: functional
# Mus musculus [21] = assay: Incidence of disease (mouse type II collagen) was scored as the percentage of animals within each experimental group that exhibited joint or limb inflammation on day 37 at intraperitoneal dose of 6 mg/kg; type: functional
# Mus musculus [22] = assay: Incidence of disease (mouse type II collagen) was scored as the percentage of animals within each experimental group that exhibited joint or limb inflammation on day 23 at intraperitoneal dose of 3 mg/kg; type: functional
# Mus musculus [23] = assay: Tested for antiinflammatory activity on mouse type II collagen arthritis as Paw swelling of all animals in each group on day 37 at intraperitoneal dose of 0.38 mg/kg; type: functional
# Mus musculus [24] = assay: Incidence of disease (mouse type II collagen) was scored as the percentage of animals within each experimental group that exhibited joint or limb inflammation on day 30 at intraperitoneal dose of 1.5 mg/kg; type: functional
# Mus musculus [25] = assay: Tested for antiinflammatory activity on mouse type II collagen arthritis as Paw swelling of all animals in each group on day 30 at intraperitoneal dose of 0.75 mg/kg; type: functional
# Mus musculus [26] = assay: Tested for antiinflammatory activity on mouse type II collagen arthritis as Paw swelling of all animals in each group on day 44 at intraperitoneal dose of 6 mg/kg; type: functional
# Mus musculus [27] = assay: Incidence of disease (mouse type II collagen) was scored as the percentage of animals within each experimental group that exhibited joint or limb inflammation on day 37 at intraperitoneal dose of 1.5 mg/kg; type: functional
# Mus musculus [28] = assay: Tested for antiinflammatory activity on mouse type II collagen arthritis as Paw swelling of all animals in each group on day 44 at intraperitoneal dose of 3 mg/kg; type: functional
# Mus musculus [29] = assay: Incidence of disease (mouse type II collagen) was scored as the percentage of animals within each experimental group that exhibited joint or limb inflammation on day 23 at intraperitoneal dose of 0.38 mg/kg; type: functional
# Mus musculus [30] = assay: Tested for antiinflammatory activity on mouse type II collagen arthritis as Paw swelling of all animals in each group on day 30 at intraperitoneal dose of 3 mg/kg; type: functional
# Mus musculus [31] = assay: Tested for antiinflammatory activity on mouse type II collagen arthritis as Paw swelling of all animals in each group on day 30 at intraperitoneal dose of 6 mg/kg; type: functional
# Mus musculus [32] = assay: Tested for antiinflammatory activity on mouse type II collagen arthritis as Paw swelling of all animals in each group on day 23 at intraperitoneal dose of 0.75 mg/kg; type: functional
# L1210 = assay: Concentration required to inhibit the growth of L1210 cells.; type: functional, cell-based; details: Mus musculus
# Mus musculus [33] = assay: Tested for antiinflammatory activity on mouse type II collagen arthritis as Paw swelling of all animals in each group on day 30 at intraperitoneal dose of 0.38 mg/kg; type: functional
# Mus musculus [34] = assay: Incidence of disease (mouse type II collagen) was scored as the percentage of animals within each experimental group that exhibited joint or limb inflammation on day 37 at intraperitoneal dose of 3 mg/kg; type: functional
# Mus musculus [35] = assay: Tested for antiinflammatory activity on mouse type II collagen arthritis as Paw swelling of all animals in each group on day 23 at intraperitoneal dose of 3 mg/kg; type: functional
# Mus musculus [36] = assay: Tested for antiinflammatory activity on mouse type II collagen arthritis as Paw swelling of all animals in each group on day 37 at intraperitoneal dose of 6 mg/kg; type: functional
# Mus musculus [37] = assay: Incidence of disease (mouse type II collagen) was scored as the percentage of animals within each experimental group that exhibited joint or limb inflammation on day 44 at intraperitoneal dose of 1.5 mg/kg; type: functional
# Mus musculus [38] = assay: Incidence of disease (mouse type II collagen) was scored as the percentage of animals within each experimental group that exhibited joint or limb inflammation on day 23 at intraperitoneal dose of 0.75 mg/kg; type: functional
# Mus musculus [39] = assay: Tested for antiinflammatory activity on mouse type II collagen arthritis as Paw swelling of all animals in each group on day 44 at intraperitoneal dose of 1.5 mg/kg; type: functional
# Mus musculus [40] = assay: Incidence of disease (mouse type II collagen) was scored as the percentage of animals within each experimental group that exhibited joint or limb inflammation on day 30 at intraperitoneal dose of 6 mg/kg; type: functional
# Mus musculus [41] = assay: Tested for antiinflammatory activity on mouse type II collagen arthritis as Paw swelling of all animals in each group on day 23 at intraperitoneal dose of 1.5 mg/kg; type: functional
# Mus musculus [42] = assay: Tested for antiinflammatory activity on mouse type II collagen arthritis as Paw swelling of all animals in each group on day 44 at intraperitoneal dose of 1.50 mg/kg; type: functional; details: dose 1.5 mg/kg
# Mus musculus [43] = assay: Tested for antiinflammatory activity on mouse type II collagen arthritis as Paw swelling of all animals in each group on day 23 at intraperitoneal dose of 1.50 mg/kg; type: functional; details: dose 1.5 mg/kg
# Mus musculus [44] = assay: Tested for antiinflammatory activity on mouse type II collagen arthritis as Paw swelling of all animals in each group on day 30 at intraperitoneal dose of 1.50 mg/kg; type: functional; details: dose 1.5 mg/kg
# Mus musculus [45] = assay: Tested for antiinflammatory activity on mouse type II collagen arthritis as Paw swelling of all animals in each group on day 37 at intraperitoneal dose of 1.50 mg/kg; type: functional; details: dose 1.5 mg/kg
# Mus musculus [46] = assay: Incidence of disease (mouse type II collagen) was scored as the percentage of animals within each experimental group that exhibited joint or limb inflammation on day 44 at intraperitoneal dose of 8 mg/kg; type: functional
# Mus musculus [47] = assay: Incidence of disease (mouse type II collagen) was scored as the percentage of animals within each experimental group that exhibited joint or limb inflammation on day 23 at intraperitoneal dose of 8 mg/kg; type: functional
# Mus musculus [48] = assay: Tested for antiinflammatory activity on mouse type II collagen arthritis as Paw swelling of all animals in each group on day 23 at intraperitoneal dose of 8 mg/kg; type: functional
# Mus musculus [49] = assay: Tested for antiinflammatory activity on mouse type II collagen arthritis as Paw swelling of all animals in each group on day 44 at intraperitoneal dose of 8 mg/kg; type: functional
# Mus musculus [50] = assay: Incidence of disease (mouse type II collagen) was scored as the percentage of animals within each experimental group that exhibited joint or limb inflammation on day 37 at intraperitoneal dose of 8 mg/kg; type: functional
# Mus musculus [51] = assay: Incidence of disease (mouse type II collagen) was scored as the percentage of animals within each experimental group that exhibited joint or limb inflammation on day 30 at intraperitoneal dose of 8 mg/kg; type: functional
# Mus musculus [52] = assay: Tested for antiinflammatory activity on mouse type II collagen arthritis as Paw swelling of all animals in each group on day 30 at intraperitoneal dose of 8 mg/kg; type: functional
# Mus musculus [53] = assay: Tested for antiinflammatory activity on mouse type II collagen arthritis as Paw swelling of all animals in each group on day 37 at intraperitoneal dose of 8 mg/kg; type: functional
smiles,measurement,setting,value
CCCc1c(CNc2ccc(C(=O)NC(CCC(=O)O)C(=O)O)cc2)cnc2nc(N)nc(N)c12 (stereo unspecified),Animals,Mus musculus [1],0%
same,Animals,Mus musculus [2],0%
same,Paw swelling,Mus musculus [3],2.23 mm
same,Paw swelling,Mus musculus [4],2.57 mm
same,Animals,Mus musculus [5],29%
same,Animals,Mus musculus [6],50%
same,Animals,Mus musculus [7],0%
same,Animals,Mus musculus [8],0%
same,IC50,[9],8.2 nM
same,Paw swelling,Mus musculus [10],2.16 mm
same,Paw swelling,Mus musculus [11],2.22 mm
same,Animals,Mus musculus [12],88%
same,Paw swelling,Mus musculus [13],2.14 mm
same,Paw swelling,Mus musculus [14],2.11 mm
same,Paw swelling,Mus musculus [15],2.13 mm
same,Animals,Mus musculus [16],75%
same,Animals,Mus musculus [17],0%
same,Animals,Mus musculus [18],14%
same,Paw swelling,Mus musculus [19],2.19 mm
same,Animals,Mus musculus [20],0%
same,Animals,Mus musculus [21],25%
same,Animals,Mus musculus [22],0%
same,Paw swelling,Mus musculus [23],2.22 mm
same,Animals,Mus musculus [24],0%
same,Paw swelling,Mus musculus [25],2.17 mm
same,Paw swelling,Mus musculus [26],2.11 mm
same,Animals,Mus musculus [27],0%
same,Paw swelling,Mus musculus [28],2.2 mm
same,Animals,Mus musculus [29],0%
same,Paw swelling,Mus musculus [30],2.24 mm
same,Paw swelling,Mus musculus [31],2.23 mm
same,Paw swelling,Mus musculus [32],2.13 mm
same,IC50,L1210,6.5 nM
same,Paw swelling,Mus musculus [33],2.13 mm
same,Animals,Mus musculus [34],14%
same,Paw swelling,Mus musculus [35],2.12 mm
same,Paw swelling,Mus musculus [36],2.22 mm
same,Animals,Mus musculus [37],0%
same,Animals,Mus musculus [38],0%
same,Paw swelling,Mus musculus [39],2.15 mm
same,Animals,Mus musculus [40],25%
same,Paw swelling,Mus musculus [41],2.12 mm
Nc1nc(N)c2cc(CNc3ccc(C(=O)NC(CCC(=O)O)C(=O)O)cc3)cnc2n1 (stereo unspecified),Animals,Mus musculus [2],12%
same,Animals,Mus musculus [6],62%
same,Animals,Mus musculus [8],0%
same,Paw swelling,Mus musculus [10],2.23 mm
same,Paw swelling,Mus musculus [11],2.28 mm
same,Animals,Mus musculus [20],38%
same,Paw swelling,Mus musculus [42],2.21 mm
same,Paw swelling,Mus musculus [43],2.1 mm
same,Animals,Mus musculus [24],12%
same,Paw swelling,Mus musculus [25],2.19 mm
same,Animals,Mus musculus [27],12%
same,Paw swelling,Mus musculus [32],2.14 mm
same,Animals,Mus musculus [37],25%
same,Paw swelling,Mus musculus [44],2.16 mm
same,Animals,Mus musculus [38],0%
same,Paw swelling,Mus musculus [45],2.17 mm
Nc1nc(N)c2cc(CCc3ccc(C(=O)NC(CCC(=O)O)C(=O)O)s3)cnc2n1 (stereo unspecified),Animals,Mus musculus [46],88%
same,Animals,Mus musculus [47],0%
same,Paw swelling,Mus musculus [48],2.13 mm
same,Paw swelling,Mus musculus [49],2.63 mm
same,Animals,Mus musculus [50],88%
same,Animals,Mus musculus [51],25%
same,Paw swelling,Mus musculus [52],2.19 mm
same,Paw swelling,Mus musculus [53],2.6 mm
